Test results from patent US5977386A, “6-thio-substituted paclitaxels” (Bristol-Myers Squibb Company, priority 1997, dated 1999).
Where two headings read alike, the source gives them in different places.

What was measured:
[1] = tested on: HCT-116 human colon carcinoma cells; assay: MTS cytotoxicity assay (72 h exposure); assay type: cell-based
Description: Cytoxicity was assessed in HCT-116 human colon carcinoma cells by MTS (3-(4,5-dimethylthiazol-2-yl)-5-(3-carboxymethoxyphenyl)-2-(4-sulphenyl)-2H-tetrazolium, inner salt) assay as reported in T. L. Riss, et. al., "Comparison of MTT, XTT, and a novel tetrazolium compound MTS for in vitro proliferation and chemosensitivity assays.," Mol. Biol. Cell 3 (Suppl.):184a, 1992. Cells were plated at 4,000 cell/well in 96 well microtiter plates and 24 hours later drugs were added and serial diluted. The cells were incubated at 37° for 72 hours at which time the tetrazolium dye, MTS at 333 μg/ml (final concentration), in combination with the electron coupling agent phenazine methosulfate at 25 μM (final concentration) was added. A dehydrogenase enzyme in live cells reduces the MTS to a form that absorbs light at […] which can be quantitated spectrophotometrically. The greater the absorbance the greater the number of live cells. The results are expressed as an IC50, which is the drug concentration required to inhibit cell proliferation (i.e. absorbance at 450 nm) to 50% of that of untreated control cells. The IC50 values for compounds evaluated in this assay are evaluated in Table I.
^1 Cytotoxicity was determined after a 72 h exposure by MTS assay.

M5076 murine sarcoma = assay: sc M5076 murine sarcoma model, tumor growth delay; assay type: in vivo; conditions: sc M5076, iv on days 1, 3, 5, 7, and 9 post-implant, at optimal dose
Description: M5076: Taxane derivatives were tested in the M5076 murine sarcoma model using the general materials and methods described by Rose, W. C. in Anticancer Research 6: 557-562, 1986, for subcutaneous M5076 implants, with the following modifications: treatments were administered intravenously on Days 1, 3, 5, 7, and 9 post-tumor implant using eight mice per treatment and untreated control group. Activity was determined based on an increase in lifespan (as described in the preceding reference) of […], and, in particular, on a delay in tumor growth equivalent to at least 1 gross log cell kill (LCK). The latter was calculated as described in Rose, W. C. and Basler, G. A. in In Vivo 4: 391-396, 1990.
^a Optimal dose (mg/kg/inj) if active, otherwise, maximal tolerated
dose (MTD) or highest dose tested.

[2] = Homo sapiens, HCT-116, 72 h, read-out: Cytotoxicity Assay IC50 against HCT 116 Human colon tumor cell line
[3] = Homo sapiens, HCT-116, read-out: Cytotoxicity Assay IC50 against HCT 116 Human colon tumor cell line

CC(=O)O[C@H]1C(=O)[C@]2(C)C[C@@H](SCc3ccccc3)[C@H]3OC[C@@]3(OC(C)=O)[C@H]2[C@H](OC(=O)c2ccccc2)[C@]2(O)C[C@H](OC(=O)[C@H](O)[C@@H](NC(=O)c3ccccc3)c3ccccc3)C(C)=C1C2(C)C [Compound 32, 6-b-thiobenzyl-7-deoxypaclitaxel]
IC50 [1, 2]: 5.27 nM

CC(=O)O[C@H]1C(=O)[C@]2(C)C[C@@H](SCCO)[C@H]3OC[C@@]3(OC(C)=O)[C@H]2[C@H](OC(=O)c2ccccc2)[C@]2(O)C[C@H](OC(=O)[C@H](O)[C@@H](NC(=O)c3ccccc3)c3ccccc3)C(C)=C1C2(C)C [Compound 15, 7-deoxy-6β-(2-hydroxyethyl)thio-paclitaxel]
Maximum T-C in LCK (gross log cell kill) (M5076 murine sarcoma): 0.3 LCK
IC50 [1, 3]: 1.8 nM

CC(=O)O[C@H]1C(=O)[C@]2(C)C[C@@H](SCC(N)=O)[C@H]3OC[C@@]3(OC(C)=O)[C@H]2[C@H](OC(=O)c2ccccc2)[C@]2(O)C[C@H](OC(=O)[C@H](O)[C@@H](NC(=O)c3ccccc3)c3ccccc3)C(C)=C1C2(C)C [Compound 44, 7-deoxy-6b-thioacetamidepaclitaxel]
Maximum T-C in LCK (gross log cell kill) (M5076 murine sarcoma): 0 LCK
IC50 [1, 2]: 11 nM

CS[C@@H]1C[C@@]2(C)C(=O)[C@H](OC(C)=O)C3=C(C)[C@@H](OC(=O)[C@H](O)[C@@H](NC(=O)OC(C)(C)C)c4ccccc4)C[C@@](O)([C@@H](OC(=O)c4ccccc4)[C@@H]2[C@]2(OC(C)=O)CO[C@H]12)C3(C)C [Compound 24, 3'-NH-Boc-7-deoxy-6b-thiomethylpaclitaxel]
Maximum T-C in LCK (gross log cell kill) (M5076 murine sarcoma): 1.2 LCK
IC50 [1, 2]: 0.2 nM

C=CS[C@@H]1C[C@@]2(C)C(=O)[C@H](OC(C)=O)C3=C(C)[C@@H](OC(=O)[C@H](O)[C@@H](NC(=O)c4ccccc4)c4ccccc4)C[C@@](O)([C@@H](OC(=O)c4ccccc4)[C@@H]2[C@]2(OC(C)=O)CO[C@H]12)C3(C)C [Compound 50, 6b-thioethenyl-7-deoxypaclitaxel]
Maximum T-C in LCK (gross log cell kill) (M5076 murine sarcoma): 1.0 LCK
IC50 [1, 2]: 0.3 nM

CC(=O)O[C@H]1C(=O)[C@]2(C)C[C@@H](SC(C)=O)[C@H]3OC[C@@]3(OC(C)=O)[C@H]2[C@H](OC(=O)c2ccccc2)[C@]2(O)C[C@H](OC(=O)[C@H](O)[C@@H](NC(=O)c3ccccc3)c3ccccc3)C(C)=C1C2(C)C [Compound 11, 7-deoxy-6β-thioacetoxypaclitaxel]
Maximum T-C in LCK (gross log cell kill) (M5076 murine sarcoma): 0.5 LCK
IC50 [1, 2]: 1.84 nM

CC(=O)O[C@H]1C(=O)[C@]2(C)C[C@@H]([S+](C)[O-])[C@H]3OC[C@@]3(OC(C)=O)[C@H]2[C@H](OC(=O)c2ccccc2)[C@]2(O)C[C@H](OC(=O)[C@H](O)[C@@H](NC(=O)OC(C)(C)C)c3ccccc3)C(C)=C1C2(C)C (single isomer, unassigned) [Compound 26, 3'-NH-Boc-7-deoxy-6b-methylsulfoxidepaclitaxel]
IC50 [1, 2]: 0.66 nM

CC(=O)O[C@H]1C(=O)[C@]2(C)C[C@@H](SCC#N)[C@H]3OC[C@@]3(OC(C)=O)[C@H]2[C@H](OC(=O)c2ccccc2)[C@]2(O)C[C@H](OC(=O)[C@H](O)[C@@H](NC(=O)c3ccccc3)c3ccccc3)C(C)=C1C2(C)C [Compound 36, 6b-thioacetonitrile-7-deoxypaclitaxel]
Maximum T-C in LCK (gross log cell kill) (M5076 murine sarcoma): 1.1 LCK
IC50 [1, 2]: 4.4 nM

CC(=O)O[C@H]1C(=O)[C@]2(C)C[C@@H]([S+](C)[O-])[C@H]3OC[C@@]3(OC(C)=O)[C@H]2[C@H](OC(=O)c2ccccc2)[C@]2(O)C[C@H](OC(=O)[C@H](O)[C@@H](NC(=O)c3ccccc3)c3ccccc3)C(C)=C1C2(C)C (single isomer, unassigned) [Compound 19a, 7-deoxy-6β-methyl sulfoxide-paclitaxel]
IC50 ([1]; 4320 min, read-out: Cytotoxicity Assay IC50 against HCT 116 Human colon tumor cell line): > 111 nM

CC(=O)O[C@H]1C(=O)[C@]2(C)C[C@@H]([S+]([O-])CC#N)[C@H]3OC[C@@]3(OC(C)=O)[C@H]2[C@H](OC(=O)c2ccccc2)[C@]2(O)C[C@H](OC(=O)[C@H](O)[C@@H](NC(=O)c3ccccc3)c3ccccc3)C(C)=C1C2(C)C (single isomer, unassigned) [Compound 38, 6b-cyanomethylsulfoxo-7-deoxypaclitaxel]
Maximum T-C in LCK (gross log cell kill) (M5076 murine sarcoma): 0 LCK
IC50 [1, 2]: 28 nM

CCOC(=O)N[C@@H](c1ccccc1)[C@@H](O)C(=O)O[C@H]1C[C@@]2(O)[C@@H](OC(=O)c3ccccc3)[C@@H]3[C@]4(OC(C)=O)CO[C@@H]4[C@H](SC)C[C@@]3(C)C(=O)[C@H](OC(C)=O)C(=C1C)C2(C)C [Compound 28, 3'-NH-ethylcarbonate-7-deoxy-6b-thiomethylpaclitaxel]
Maximum T-C in LCK (gross log cell kill) (M5076 murine sarcoma): 1.1 LCK
IC50 [1, 2]: 0.7 nM

CS[C@@H]1C[C@@]2(C)C(=O)[C@H](OC(C)=O)C3=C(C)[C@@H](OC(=O)[C@H](O)[C@@H](NC(=O)c4ccccc4)c4ccccc4)C[C@@](O)([C@@H](OC(=O)c4ccccc4)[C@@H]2[C@]2(OC(C)=O)CO[C@H]12)C3(C)C [Compound 9, 7-deoxy-6β-thiomethylpaclitaxel]
Maximum T-C in LCK (gross log cell kill) (M5076 murine sarcoma): 1.1 LCK
IC50 [1, 2]: 1.1 nM

CCS[C@@H]1C[C@@]2(C)C(=O)[C@H](OC(C)=O)C3=C(C)[C@@H](OC(=O)[C@H](O)[C@@H](NC(=O)c4ccccc4)c4ccccc4)C[C@@](O)([C@@H](OC(=O)c4ccccc4)[C@@H]2[C@]2(OC(C)=O)CO[C@H]12)C3(C)C [Compound 30, 7-deoxy-6b-thioethylpaclitaxel]
Maximum T-C in LCK (gross log cell kill) (M5076 murine sarcoma): 0.4 LCK
IC50 [1, 2]: 0.9 nM

CSCS[C@@H]1C[C@@]2(C)C(=O)[C@H](OC(C)=O)C3=C(C)[C@@H](OC(=O)[C@H](O)[C@@H](NC(=O)c4ccccc4)c4ccccc4)C[C@@](O)([C@@H](OC(=O)c4ccccc4)[C@@H]2[C@]2(OC(C)=O)CO[C@H]12)C3(C)C [Compound 46, 6-b-methylthiomethylthio ether-7-deoxy paclitaxel]
Maximum T-C in LCK (gross log cell kill) (M5076 murine sarcoma): 0 LCK
IC50 [1, 2]: 3.5 nM

CC(=O)O[C@H]1C(=O)[C@]2(C)C[C@@H](S)[C@H]3OC[C@@]3(OC(C)=O)[C@H]2[C@H](OC(=O)c2ccccc2)[C@]2(O)C[C@H](OC(=O)[C@H](O)[C@@H](NC(=O)c3ccccc3)c3ccccc3)C(C)=C1C2(C)C [Compound 13, 7-deoxy-6β-thio-paclitaxel]
Maximum T-C in LCK (gross log cell kill) (M5076 murine sarcoma): 0.5 LCK
IC50 [1, 3]: 26.1 nM

COCS[C@@H]1C[C@@]2(C)C(=O)[C@H](OC(C)=O)C3=C(C)[C@@H](OC(=O)[C@H](O)[C@@H](NC(=O)c4ccccc4)c4ccccc4)C[C@@](O)([C@@H](OC(=O)c4ccccc4)[C@@H]2[C@]2(OC(C)=O)CO[C@H]12)C3(C)C [Compound 48]
Maximum T-C in LCK (gross log cell kill) (M5076 murine sarcoma): 0.2 LCK
IC50 [1, 2]: 1.9 nM
